The structures appear in SMILES notation. Like-named read-outs stand apart in the source and are kept apart here.

The values that follow come from publication PMC6409085, “Three odorant-binding proteins are involved in the behavioral response of Sogatella furcifera to rice plant volatiles” (PeerJ, 2019).

The subject of test [1] is dsRNA treated S. furcifera adults. Nature of the test: Y-tube olfactometer behavioral trials after RNAi. It is filed as in vivo, Sogatella furcifera. The settings on record: for number of insects choosing hexane arm / number of insects choosing volatile arm / number of insects failed (no choice): odorant vs hexane. How it is done: To test the effect of the rice odorants on the behavior of S. furcifera adults, a glass Y-tube olfactometer (inner diameter 2.0 cm, stem 13 cm, arms 10 cm, angle of arms 60°) according to the previously described ([Wang et al., 2014b]) was employed. An airtight cubic box (70 by 45 by 30 cm) was used to position Y-tube, and the Y-tube was lighted by a 30-W filament lamp 25 cm above it. Air that filtered through activated charcoal and humidified with doubly distilled water was pumped in both arms at a flow rate of 300 mL/min. Two filter paper strips (10 by 1 cm) containing 100 µL odorant source (50 µL/L) and 100 µL control hexane were placed in two holding chambers in the front of the olfactometer, respectively. A S. furcifera adult (2 days after emergence, starved for 0.5 h) was randomly chosen and placed in the stem of the Y-tube. Each insect was given 10 min to choose between the two arms of the Y-tube, the choice was noted if the planthopper reached one-half of the arms’ lengths and stayed in the arm for more than 1 min. Besides, S. furcifera was considered as having no orientation preference. Forty-five individuals were used for each compound, each insect used only once. And the dual-choice experiment was done in an environmentally controlled room (25 ± 1 °C and 50% RH). A Chi-squared test was used to analyze the behavioral assay data by using SPSS19.0 (SPSS Inc., Chicago, IL, USA) software.
S. furcifera adults (one-day-old, CO2 anesthetized) were injected with dsRNA (50 nL/adult, 2,000 ng/µL) through the membrane between the meso- and meta-thoracic legs using a Nanoinjector (Drummond Scientific, Broomall, PA, USA). Five treatments including dsOBP2, dsOBP3, dsOBP11, dsEGFP and RNase-free water (Control) were set up. Each treatment consisted of 30 adults and the experiments were repeated three times. Ten individuals were collected from each replicate to determine the effects of RNAi by qPCR post 24 h of dsRNA injection (the timepoint with maximum RNAi efficiency after injection). Meanwhile, the behavioral responses of dsRNA treated adults for volatiles which binding well to OBP and attract or repel to S. furcifera were tested using a Y-tube olfactometer as described above.

In the next test the test system is S. furcifera adults. Further details: method as in Wang et al., 2017. The conditions noted are these: previously reported, ref Wang et al., 2017, cited from earlier work.

As for `C=C/C(C)=C/C/C=C(\C)CCC=C(C)C` [α-farnesene], in test [1] (dsOBP3 injected adults), the “behavioral response (in words)” value is on record as “no longer attracted”, the “number of insects choosing hexane arm” value is listed as 11, the “number of insects choosing volatile arm” value was 12 and the “number of insects failed (no choice)” value worked out at 15.

With `CC(=O)/C=C/C1=C(C)CCCC1(C)C` [β-Ionone], in test [1] (SfurOBP2 silenced adults), the “behavioral response (in words)” value is “significantly reduced the number of adults that attracted”. Also, the entries for the “number of insects choosing hexane arm” value in test [1] (dsOBP2 injected adults), in test [1] (dsOBP3 injected adults) and in test [1] (dsOBP11 injected adults) were 14, 9 and 8, respectively. Besides, the entries for the “number of insects choosing volatile arm” value in test [1] (dsOBP2 injected adults), in test [1] (dsOBP3 injected adults) and in test [1] (dsOBP11 injected adults) were 13, 16 and 17, respectively. In addition, the results for the “number of insects failed (no choice)” value in test [1] (dsOBP2 injected adults), in test [1] (dsOBP3 injected adults) and in test [1] (dsOBP11 injected adults) were 15, 15 and 16, respectively.

`C/C(=C\CO)CCC[C@H](C)CCC[C@H](C)CCCC(C)C` [plant alcohol]: in test [1] (dsOBP11 injected adults), the “behavioral response (in words)” value is reported as “lost the activation that repel”, the “number of insects choosing hexane arm” value came to 17, the “number of insects choosing volatile arm” value was 19 and the “number of insects failed (no choice)” value amounted to 13. In the test with S. furcifera adults, the “behavioral response of S. furcifera (in words)” value is given as “significantly repellent effect”. Besides, the “behavioral response of S. furcifera (in words)” value in the test on S. furcifera adults (listed as Plant alcohol) was “strongly repellent”.
